Data set [1] can be described thus: Lipid hydroperoxide (LPO) generation assay (linoleic acid, Fenton reaction). In kind it is biochemical. As for the experimental part:
Antioxidant assays using linoleic acid with a purity of 98.0% (Wako Pure Chemical Ind.) were performed using a described protocol with modifications. Briefly, 20 μL of 1% linoleic acid in methanol, 20 μL of 20 mmol/L ferrous chloride in water, 20 μL of test sample in DMSO, and 150 μL of a mixed solution (1:1) of methanol and 20 mmol/L phosphate buffer (pH 7.0) were added to 96-well polypropylene plates. After incubation at room temperature in the dark for 1 h, 10 μL of the reaction products were transferred to 200 μL of a methanol solution containing 39 mmol/L ammonium thiocyanate, 0.2 mmol/L ferrous chloride, and 0.01 mol/L hydrochloride. After incubation for 15 min, absorbance at 500 nm was measured using a microplate reader (Multiskan GO, Thermo Fisher Scientific Inc., Waltham, MA, USA). The concentration of lipid hydroperoxide (LPO) products was calculated conveniently using standard curves of serially-diluted linolein hydroperoxides (Cayman Chemical). The percentage of control was calculated using the following formula; (A − B)/(C − B) × 100, with A = test sample, B = linoleic acid alone, and C = vehicle control. Ascorbic acid was used as a reference agent.

The nature of data set [2]: ROS scavenging assay (hydrogen peroxide-dependent oxidation). In kind it is biochemical. The following applies: for Antioxidant Activity (% of Control) ROS Scavenge: C.I. = complete inhibition; for IC50: concentration-dependency, Figure 4. The protocol:
Hydrogen peroxide-dependent oxidation tests were performed using Oxiselect™ In Vitro ROS/RNS Assay kits (Cellbiolab Inc., San Diego, CA, USA) according to the manufacturer’s protocol. Briefly, a test sample was mixed with hydrogen peroxide (final concentration: 2.5 μmol/L) and incubated for 5 min. A fluorescent reaction was started by the addition of a fluorescent probe (dichrolodihydrofluorescin-DiOxyQ) at room temperature. After incubation for 15 min, relative fluorescent units (RFUs) were measured at […] using a fluorescent plate reader (Infinite M200; Tecan Trading AG, Männedorf, Switzerland). The percentage of control was calculated using the following formula; (A − B)/(C − B) × 100, with A = test sample, B = fluorescent probe alone, and C = vehicle control. (+)-Ascorbic acid was used as a reference agent.

Data set [3] can be described thus: Plasma pharmacokinetics of KBGY constituents in rats after single oral administration of KBGY. In kind it is in vivo, rat. As for the experimental part:
KBGY prepared in water was administered orally to 16 h fasted rats at a dose of 2 g/10 mL/kg (n = 3). […] Plasma was obtained by centrifugation at 1700× g for 15 min at 4 °C and stored at −80 °C until analysis.
For quantification of the dicarboxylic acid, 50 µL of standard solution, 100 µL of acetic acid (2%, v/v), and 650 µL of ethyl acetate were added to 200 µL of plasma samples, followed by mixing and centrifugation (7000× g, 5 min). The supernatants were collected and dried with a centrifugal evaporator and concentration system (CC-105; TOMY SEIKO Co., Tokyo, Japan). The residue was dissolved with 100 µL acetonitrile and 50 µL BF3/butanol solution; the dissolved solution was incubated for 1 h at 60 °C. The reaction was terminated by the addition of 50 µL of water and hexane, 150 µL of a saturated solution of sodium chloride, and 400 µL of hexane. The solution was vortexed for 2 min, and the supernatant was obtained by centrifugation (7000× g, 5 min). Liquid–liquid extraction was repeated twice. The corrected supernatant was dried with the centrifugal evaporator and concentration system. The dried residue was dissolved in 100 µL of acetonitrile containing 1 µg/mL of o-terphenyl (Tokyo Chemical Ind. Co.) as an internal standard (IS). Five microliters of the solution was then injected into the GC/MS system.
For quantification of volatile organic compounds (cinnamaldehyde, methyl cinnamate, 2-methoxycinnamaldehyde, mandelonitrile, salicylaldehyde, eugenol, cinnamyl alcohol, and 3-phenylpropyl acetate), 25 µL of standard solution, 25 µL of 2 µg/mL of 1,4-dibromobenzene (Tokyo Chemical Ind. Co.) as IS, and 500 µL of acetonitrile were added to 200 µL of plasma samples, followed by mixing and centrifugation (7000× g, 5 min). Five microliters of the supernatant was then injected into the GC/MS system.
For quantification of other compounds, 25 µL of standard solution, 25 µL of 2 ng/mL of atropine sulfate monohydrate (Wako Pure Chemical Ind.) or niflumic acid (Sigma-Aldrich) as IS, and 750 µL of methanol were added to 200 µL of plasma samples, followed by mixing and centrifugation (7000× g, 5 min). The supernatant was obtained and dried with the centrifugal evaporator and concentration system after 150 µL of propylene glycol (1%, v/v) was added to the supernatant. The dried residue was then dissolved in 60 μL of the HPLC mobile phase for each analytical method, and a 10 or 20 μL portion was injected into the LC/MS/MS system.
Plasma pharmacokinetic data were analyzed by noncompartmental modeling using Phoenix WinNonlin (version 6.3, Certara L.P., St. Louis, MO, USA) to determine various pharmacokinetic constants, including the maximum concentration (Cmax), time to maximum concentration (tmax), apparent elimination half-life (t1/2), and area under the plasma concentration-time curve from zero to last observation time (AUC0–last). The t1/2 was divided by loge^2/ke, where ke was the terminal elimination (at least three data points on the descending linear limb) rate constant.

Setting [4] is: 10 μmol/L, more than 100% = no activity.
Where [5] appears, read: rat plasma, single oral KBGY 2 g/kg.
Setting [6] is: in vivo, rat plasma, single oral KBGY 2 g/kg, read-out: tmax.

Molecules are shown by their SMILES. “And” between values parts separate entries of the source, which are not always exact repeats. Equal values may be shown once. Read-outs that look alike come from different tables or passages of the source.

For orientation: Tmax means the time at which the peak concentration occurs. The Cmax is the highest concentration seen after dosing. Turning to `C[C@@]12C[C@@]3(O)O[C@@H](O1)[C@]1(COC(=O)c4ccccc4)[C@H]3C[C@@]12O[C@@H]1O[C@H](CO)[C@@H](O)[C@H](O)[C@H]1O` [Paeoniflorin], the “Antioxidant Activity (% of Control) LPO Generation” value in data set [1] (setting [4]) is listed as 92.7 ± 0.9 % of Control. In addition, the “Antioxidant Activity (% of Control) ROS Scavenge” value in data set [2] (setting [4]) is on record as 100.2 ± 1.4 % of Control. Moreover, the Tmax in data set [3] (setting [5]) was 0.5 h. In data set [3] (rat, in vivo, po, 2 g/kg), the AUC(0-t) came out at 299 ng·h/mL; the Cmax is 80.2 ng/mL and 167 nM; the half-life was 2.72 h.
By IC50 is commonly meant the concentration that inhibits the measured activity by half. Read a low IC50 as higher potency. Regarding `O=C(O)c1cc(O)c(O)c(O)c1` [Gallic acid], the “Antioxidant Activity (% of Control) LPO Generation” value in data set [1] (setting [4]) is 74.0 ± 2.5 % of Control. Besides, in data set [1] (10 μmol/L, more than 100% = no activity, listed as gallic acid), the “Antioxidant Activity (% of Control) LPO Generation” value was “less than 80 % of Control”. The “Inhibition of LPO generation” value in data set [1] (3 and 10 μmol/L, Figure 4) is recorded as “significantly inhibited LPO generation”. The “ROS scavenging activity (% control)” value in data set [2] (0.313 μmol/L) was 71.1 % control. The anti-ROS activity result in data set [2] (10 μmol/L) is “strong anti-ROS activity”. For the same compound, the “Antioxidant Activity (% of Control) ROS Scavenge” value in data set [2] (setting [4]) is listed as 14.5 ± 0.7 % of Control. In data set [2], this compound came in with an IC50 of 954 nM. Moreover, in data set [3] (setting [6]), the Tmax stood at 0.5 h. Also, in data set [3] (rat, in vivo, po, 2 g/kg), the AUC(0-t) stood at 172 ng·h/mL; the Cmax was 84.9 ng/mL and 499 nM; the half-life is 0.772 h.
Regarding `N#C[C@H](O[C@@H]1O[C@H](CO[C@@H]2O[C@H](CO)[C@@H](O)[C@H](O)[C@H]2O)[C@@H](O)[C@H](O)[C@H]1O)c1ccccc1` [Amygdalin], the “Antioxidant Activity (% of Control) LPO Generation” value in data set [1] (setting [4]) is listed as 102.0 ± 2.1 % of Control. For the same compound, the “Antioxidant Activity (% of Control) ROS Scavenge” value in data set [2] (setting [4]) is 106.4 ± 0.5 % of Control. In addition, the AUC(0-t) in data set [3] (in vivo, rat plasma, single oral KBGY 2 g/kg, read-out: AUC0–last) was 79.9 ng·h/mL. Moreover, the Cmax in data set [3] (in vivo, rat plasma, single oral KBGY 2 g/kg, read-out: Cmax) was 37.7 ng/mL and 82 nM. Moreover, the half-life in data set [3] (in vivo, rat plasma, single oral KBGY 2 g/kg, read-out: t1/2 (converted)) was 0.657 h. Besides, the Tmax in data set [3] (setting [6]) is 0.5 h.
Regarding `O=C1OC[C@H](Cc2cccc(O)c2)[C@H]1Cc1cccc(O)c1` [Enterolactone], the “Antioxidant Activity (% of Control) LPO Generation” value was 102.1± 2.7 % of Control in data set [1] (1 μmol/L) and 86.1 ± 0.9 % of Control in data set [1] (setting [4]). Further, the “Antioxidant Activity (% of Control) ROS Scavenge” value is recorded as 81.6 ± 2.9 % of Control in data set [2] (1 μmol/L) and “C.I” in data set [2] (setting [4]). Further, the anti-ROS activity result in data set [2] (10 μmol/L) is on record as “strong anti-ROS activity”. This compound gave an AUC(0-t) in data set [3] (rat, in vivo, po, 2 g/kg) of 1.33 ng·h/mL. Moreover, the Cmax in data set [3] (rat, in vivo, po, 2 g/kg) was 1.07 ng/mL and 4 nM. The Tmax in data set [3] (rat, in vivo, po, 2 g/kg) came to 4 h.
Take `COc1cc([C@@H]2c3c(cc(OC)c(O)c3OC)C[C@H](CO)[C@H]2CO)cc(OC)c1O` [Lyoniresinol]: the “Antioxidant Activity (% of Control) LPO Generation” value in data set [1] (1 μmol/L) is listed as 96.8 ± 2.9 % of Control; in data set [1] (setting [4]), 57.4 ± 1.6 % of Control; in data set [1] (10 μmol/L, more than 100% = no activity, listed as lyoniresinol) it was “less than 80 % of Control”. Further, the “Antioxidant Activity (% of Control) ROS Scavenge” value in data set [2] (1 μmol/L) was 89.3 ± 2.0 % of Control; in data set [2] (setting [4]) it was “C.I”. Also, the anti-ROS activity entry in data set [2] (10 μmol/L) is reported as “strong anti-ROS activity”. Further, the “AUC0–last” value in data set [3] (setting [5]) came to 0.3 ng·h/mL. Also, in data set [3] (setting [5]), the Tmax was found to be 1 h. The compound further showed a t1/2 in data set [3] (setting [5]) of 11.4 h.
For `O=C(O)CCCCC(=O)O` [Adipic acid], the “Antioxidant Activity (% of Control) LPO Generation” value in data set [1] (setting [4]) was 103.6 ± 2.9 % of Control. The “Antioxidant Activity (% of Control) ROS Scavenge” value in data set [2] (setting [4]) was 97.0 ± 0.9 % of Control. In addition, in data set [3] (rat, in vivo, po, 2 g/kg), the AUC(0-t) worked out at 17.1 ng·h/mL; the Cmax is 14.4 ng/mL and 99 nM; the Tmax came to 6 h.
In the case of `COc1cc(C[C@H]2CO[C@H](c3ccc(O)c(OC)c3)[C@H]2CO)ccc1O` [Lariciresinol], the “Antioxidant Activity (% of Control) LPO Generation” value in data set [1] (1 μmol/L) is listed as 98.3 ± 1.4 % of Control; in data set [1] (setting [4]) it was 79.5 ± 1.9 % of Control; in data set [1] (10 μmol/L, more than 100% = no activity, listed as lariciresinol), “less than 80 % of Control”. Also, the “Antioxidant Activity (% of Control) ROS Scavenge” value in data set [2] (1 μmol/L) and in data set [2] (setting [4]) was “C.I” in each case. Moreover, the anti-ROS activity result in data set [2] (10 μmol/L) is listed as “strong anti-ROS activity”. In data set [2], this compound displayed an IC50 of 561 nM. In data set [3] (rat, in vivo, po, 2 g/kg), this compound had an AUC(0-t) of 9.84 ng·h/mL. In addition, the Cmax in data set [3] (rat, in vivo, po, 2 g/kg) was 1.68 ng/mL and 5 nM. Besides, the Tmax in data set [3] (rat, in vivo, po, 2 g/kg) was 4 h.

These data come from paper PMC6155852, “Oral Administration of the Japanese Traditional Medicine Keishibukuryogan-ka-yokuinin Decreases Reactive Oxygen Metabolites in Rat Plasma: Identification of Chemical Constituents Contributing to Antioxidant Activity” (Molecules : A Journal of Synthetic Chemistry and Natural …, 2017).
